Article PMC6370829, “NADP^+ is an endogenous PARP inhibitor in DNA damage response and tumor suppression” (Nature Communications, 2019)

Key:
PARP1 [1] = molecular target: T1, PARP1 (Homo sapiens, UniProt P09874); assay: ITC; also […]NADP+ pull-down binding and inhibition of auto-PARylation; parameters: catalytic domain (GST-PARP1 CAT, aa. 662–1014) for ITC
Target sequence in this assay (P09874 662-1014): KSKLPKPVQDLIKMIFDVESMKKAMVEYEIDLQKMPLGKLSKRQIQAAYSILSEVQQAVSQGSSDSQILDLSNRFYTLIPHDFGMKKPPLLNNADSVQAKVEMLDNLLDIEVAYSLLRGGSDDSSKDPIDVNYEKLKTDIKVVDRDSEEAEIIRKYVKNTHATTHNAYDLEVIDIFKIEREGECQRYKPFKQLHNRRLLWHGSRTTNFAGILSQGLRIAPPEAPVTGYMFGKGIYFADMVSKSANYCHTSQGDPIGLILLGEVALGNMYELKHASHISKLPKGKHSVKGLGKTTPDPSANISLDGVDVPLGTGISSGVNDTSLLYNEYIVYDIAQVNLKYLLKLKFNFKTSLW

PARP10 [2] = molecular target: T2, PARP10 (Homo sapiens, UniProt Q53GL7); assay: […]NADP+ binding to immobilized protein (TLC); also inhibition of auto-MARylation
T2 construct: GST-PARP10
T2 sequence (Q53GL7 1-1025): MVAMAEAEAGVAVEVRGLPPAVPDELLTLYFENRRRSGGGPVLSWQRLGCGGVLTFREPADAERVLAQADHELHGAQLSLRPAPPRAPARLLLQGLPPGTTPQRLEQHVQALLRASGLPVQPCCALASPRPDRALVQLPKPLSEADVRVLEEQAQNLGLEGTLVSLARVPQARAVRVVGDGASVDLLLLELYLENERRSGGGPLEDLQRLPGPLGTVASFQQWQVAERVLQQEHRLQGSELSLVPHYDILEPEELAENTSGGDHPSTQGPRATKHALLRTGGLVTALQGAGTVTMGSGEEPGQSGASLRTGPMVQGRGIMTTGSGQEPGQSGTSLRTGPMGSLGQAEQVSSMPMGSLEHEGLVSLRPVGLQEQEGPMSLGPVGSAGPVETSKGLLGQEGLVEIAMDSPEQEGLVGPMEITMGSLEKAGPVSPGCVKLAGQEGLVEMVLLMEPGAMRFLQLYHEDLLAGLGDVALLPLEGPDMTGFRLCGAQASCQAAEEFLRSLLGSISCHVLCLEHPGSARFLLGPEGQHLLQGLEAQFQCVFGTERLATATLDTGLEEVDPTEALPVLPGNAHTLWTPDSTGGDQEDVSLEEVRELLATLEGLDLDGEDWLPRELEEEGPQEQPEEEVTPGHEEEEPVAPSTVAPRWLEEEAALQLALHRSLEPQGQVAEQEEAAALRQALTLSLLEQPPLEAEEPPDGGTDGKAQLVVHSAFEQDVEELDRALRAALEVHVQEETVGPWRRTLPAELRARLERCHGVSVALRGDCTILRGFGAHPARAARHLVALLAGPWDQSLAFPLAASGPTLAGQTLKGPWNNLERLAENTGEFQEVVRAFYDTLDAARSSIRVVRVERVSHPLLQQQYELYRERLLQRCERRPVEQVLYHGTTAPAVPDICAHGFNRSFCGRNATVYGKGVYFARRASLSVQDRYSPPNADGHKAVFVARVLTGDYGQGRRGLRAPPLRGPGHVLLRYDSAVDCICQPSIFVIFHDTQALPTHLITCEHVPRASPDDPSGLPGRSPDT

NADK = molecular target: T3, NADK (Homo sapiens, UniProt O95544); assay: recombinant enzyme reaction, product confirmed by mass spectrometry; type: biochemical
T3 construct: recombinant NADK
T3 sequence (O95544 1-446): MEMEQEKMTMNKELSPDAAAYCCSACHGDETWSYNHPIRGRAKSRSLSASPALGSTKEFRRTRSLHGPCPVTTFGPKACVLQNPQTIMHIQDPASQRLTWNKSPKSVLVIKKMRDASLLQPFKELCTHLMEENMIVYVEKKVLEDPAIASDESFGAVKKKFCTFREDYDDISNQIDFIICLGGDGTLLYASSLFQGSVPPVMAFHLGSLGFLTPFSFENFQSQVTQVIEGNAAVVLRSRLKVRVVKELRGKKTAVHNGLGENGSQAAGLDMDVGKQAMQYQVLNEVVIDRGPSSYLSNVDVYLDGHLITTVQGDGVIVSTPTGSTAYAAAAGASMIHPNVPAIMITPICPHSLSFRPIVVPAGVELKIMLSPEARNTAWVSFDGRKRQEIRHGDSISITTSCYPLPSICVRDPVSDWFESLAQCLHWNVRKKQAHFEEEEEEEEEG

PARP2 = molecular target: T4, PARP2 (Homo sapiens, UniProt Q9UGN5); assay: […]NADP+ binding to immobilized protein (TLC); also inhibition of auto-PARylation
T4 construct: HIS-PARP2

PARP1 [3] = molecular target: T1, PARP1; assay: in vitro auto-PARylation, western blot and […]NAD+ autoradiography; type: biochemical; parameters: HIS-PARP1
Target sequence in this assay (P09874 2-1014): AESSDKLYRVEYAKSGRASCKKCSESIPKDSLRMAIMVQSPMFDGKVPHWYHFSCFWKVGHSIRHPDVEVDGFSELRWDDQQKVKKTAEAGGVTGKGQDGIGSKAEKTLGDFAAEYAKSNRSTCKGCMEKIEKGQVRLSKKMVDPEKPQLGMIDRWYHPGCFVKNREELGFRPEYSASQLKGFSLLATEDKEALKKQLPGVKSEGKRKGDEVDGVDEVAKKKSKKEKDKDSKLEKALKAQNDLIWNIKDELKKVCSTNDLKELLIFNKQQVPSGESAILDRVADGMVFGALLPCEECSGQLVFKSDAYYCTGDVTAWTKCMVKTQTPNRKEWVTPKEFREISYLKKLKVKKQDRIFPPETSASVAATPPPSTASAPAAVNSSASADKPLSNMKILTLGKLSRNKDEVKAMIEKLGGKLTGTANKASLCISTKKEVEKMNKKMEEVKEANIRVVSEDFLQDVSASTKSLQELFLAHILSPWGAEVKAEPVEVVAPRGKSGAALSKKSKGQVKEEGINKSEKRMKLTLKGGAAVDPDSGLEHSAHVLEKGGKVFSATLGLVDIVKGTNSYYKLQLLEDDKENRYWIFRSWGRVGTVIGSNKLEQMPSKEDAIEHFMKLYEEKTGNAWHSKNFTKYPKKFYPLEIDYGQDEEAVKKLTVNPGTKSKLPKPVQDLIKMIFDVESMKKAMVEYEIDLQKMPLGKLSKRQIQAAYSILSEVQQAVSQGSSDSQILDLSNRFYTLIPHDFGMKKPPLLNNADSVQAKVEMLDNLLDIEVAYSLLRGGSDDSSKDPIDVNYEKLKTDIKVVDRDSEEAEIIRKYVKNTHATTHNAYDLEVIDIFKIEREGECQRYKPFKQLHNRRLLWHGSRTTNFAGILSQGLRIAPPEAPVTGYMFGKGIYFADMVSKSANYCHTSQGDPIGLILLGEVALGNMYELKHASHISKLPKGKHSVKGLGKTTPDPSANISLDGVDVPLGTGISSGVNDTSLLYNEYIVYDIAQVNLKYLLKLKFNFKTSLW

PARP10 [4] = molecular target: T2, PARP10; assay: in vitro auto-MARylation, autoradiography; type: biochemical

T4 sequence (Q9UGN5 whole entry): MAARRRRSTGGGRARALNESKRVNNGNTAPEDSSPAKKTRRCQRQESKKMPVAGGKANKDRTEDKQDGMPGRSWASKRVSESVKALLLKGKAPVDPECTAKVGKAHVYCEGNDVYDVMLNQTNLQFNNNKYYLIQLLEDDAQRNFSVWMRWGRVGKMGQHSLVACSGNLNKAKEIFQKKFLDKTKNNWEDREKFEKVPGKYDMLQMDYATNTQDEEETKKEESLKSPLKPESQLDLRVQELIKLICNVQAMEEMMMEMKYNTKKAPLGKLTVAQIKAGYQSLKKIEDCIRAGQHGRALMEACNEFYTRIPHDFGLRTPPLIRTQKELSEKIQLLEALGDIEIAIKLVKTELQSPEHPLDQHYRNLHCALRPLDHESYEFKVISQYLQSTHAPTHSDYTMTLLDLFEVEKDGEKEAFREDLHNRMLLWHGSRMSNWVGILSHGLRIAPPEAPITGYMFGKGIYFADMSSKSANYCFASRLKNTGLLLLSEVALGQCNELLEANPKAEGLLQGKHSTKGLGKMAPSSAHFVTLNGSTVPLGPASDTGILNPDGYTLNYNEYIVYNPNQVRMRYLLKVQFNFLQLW

## NC(=O)c1ccc[n+]([C@@H]2O[C@H](COP(=O)(O)OP(=O)(O)OC[C@H]3O[C@@H](n4cnc5c(N)ncnc54)[C@H](OP(=O)(O)O)[C@@H]3O)[C@@H](O)[C@H]2O)c1 [NADP^+]
PARP1 [1]
  Kd: ~39 µM
PARP10 [2]
  [32P]NADP+ binding to immobilized protein (TLC); also inhibition of auto-MARylat: found that PARP1, PARP2, and PARP10 indeed were able to bind NADP^+ (Fig. 3a)
NADK
  recombinant enzyme reaction, product confirmed by mass spectrometry: Formation of NADP^+ by our recombinant protein was confirmed by mass spectrometry
PARP2
  [32P]NADP+ binding to immobilized protein (TLC); also inhibition of auto-PARylat: found that PARP1, PARP2, and PARP10 indeed were able to bind NADP^+ (Fig. 3a)

## NC(=O)c1ccc[n+]([C@@H]2O[C@H](COP(=O)([O-])OP(=O)(O)OC[C@H]3O[C@@H](n4cnc5c(N)ncnc54)[C@H](O)[C@@H]3O)[C@@H](O)[C@H]2O)c1 [NAD^+]
PARP1 [3]
  in vitro auto-PARylation, western blot and [32P]NAD+ autoradiography: with NAD^+, PARP1 quickly synthesized PAR chains and autoPARylated itself
NADK
  recombinant enzyme reaction, product confirmed by mass spectrometry: recombinant NADK protein that can transfer phosphate moiety from ATP to NAD^+ to synthesize NADP^+
PARP10 [4]
  in vitro auto-MARylation, autoradiography: Auto-MARylation of PARP10 was examined by autoradiography
